According to patent US20080095711A1, “Modulators of Pulmonary Hypertension” (priority 2006, published 2008):
“Also recorded” adds a separate entry of the source.

Experiments:
mice = conditions: Pokreisz et al. 2006; cited from earlier work
[1] = system: rabbit intralobar pulmonary arteries; experiment: Inhibition of agonist-induced vasoconstriction in rabbit intralobar pulmonary artery rings (ring tension); conditions: compound at 10 μM; for inhibition of 5,6-EET-induced vasoconstriction (concentration-response curve shifted to the right): 5,6-EET 1×10^−8-1×10^−5 M, rabbit PA rings
Description: To obtain the pulmonary arteries used in the study, adult New Zealand white rabbits (2.4-3.0 kg) were anesthetized with pentobarbital sodium (15 mg/kg iv) for 10 minutes after intramuscular administration of ketamine (8 mg/kg) and xylazine (2 mg/kg). A tracheostomy was performed and a tracheal cannula was inserted. The animals were ventilated via a fixed volume ventilator (Harvard) with room air (tidal volume: 8-10 ml/kg at 15 cycles/min). A catheter was inserted into a carotid artery for administration of heparin (1,000 units, iv) 10 minutes before exsanguination of the animal. After exsanguination, the lungs were removed for isolation of the pulmonary vessels. Intralobar, second order pulmonary arteries (PA) were obtained as described previously (Stephenson A. H., et al., American Journal of Physiology 284: H2153-H2161, 2003). Briefly, intralobar PA (1-2 mm OD) were dissected free of extravascular tissue, cut into rings 3-4 mm in length and suspended in water-jacketed tissue chambers containing 10 ml of a physiological salt solution (PSS) composed of (in mM): NaCl (118.3), KCl (4.7), CaCl2 (2.5), MgS04 (1.2), KH2P04 (1.2), NaHC03 (25) Na-EDTA (0.026), and glucose (11.1). The PSS was gassed with 95% O2-5% CO2 (pH: 7.4) and maintained at 37° C. Each ring was mounted between two stainless steel support wires. Ring tension was measured from one of the support wires attached to an isometric force transducer (FT03, Grass) and recorded continuously on a polygraph (Grass). Each ring was placed under a basal (passive) tension (0.75 to 1.5 g) determined to result in a maximal contractile response to KCl (60 mM). In some studies, basal tension was increased with 25 mM KCl to achieve a submaximal increase in active tension. At basal tension, concentrations of 5,6-EET (1×10^−8-1×10^−5 M, delivered in 1 μl of absolute ethanol) were added individually or cumulatively to the rings in 10 ml PSS. Total ethanol concentration in the tissue chambers never exceeded 0.1%. In these experiments, 5,6-EET was added in the presence or absence of the selective 5,6-EET inhibitors 13-HTEC (10 μM) and 14-HTYC (10 μM). […] PA rings were also exposed to various concentrations of PGF2α, (Sigma Chemical Company, St. Louis, Mo.), 14,15-EET (Cayman Chemical, Ann Arbor, Mich.), 5-hydroxytryptamine (5-HT) (Sigma Chemical Company, St. Louis, Mo.), and norepinephrine (NE) (Sigma Chemical Company, St. Louis, Mo.).

[2] = system: rabbit intralobar pulmonary arteries; experiment: Promotion of 5,6-EET induced vasoconstriction in rabbit intralobar pulmonary artery rings; conditions: compound at 1 μM; rabbit PA rings
Description: To obtain the pulmonary arteries used in the study, adult New Zealand white rabbits (2.4-3.0 kg) were anesthetized with pentobarbital sodium (15 mg/kg iv) for 10 minutes after intramuscular administration of ketamine (8 mg/kg) and xylazine (2 mg/kg). A tracheostomy was performed and a tracheal cannula was inserted. The animals were ventilated via a fixed volume ventilator (Harvard) with room air (tidal volume: 8-10 ml/kg at 15 cycles/min). A catheter was inserted into a carotid artery for administration of heparin (1,000 units, iv) 10 minutes before exsanguination of the animal. After exsanguination, the lungs were removed for isolation of the pulmonary vessels. Intralobar, second order pulmonary arteries (PA) were obtained as described previously (Stephenson A. H., et al., American Journal of Physiology 284: H2153-H2161, 2003). […] Ring tension was measured from one of the support wires attached to an isometric force transducer (FT03, Grass) and recorded continuously on a polygraph (Grass). Each ring was placed under a basal (passive) tension (0.75 to 1.5 g) determined to result in a maximal contractile response to KCl (60 mM). […]

[3] = system: isolated perfused rabbit lungs; experiment: Hypoxia-induced pulmonary vasoconstriction in isolated perfused rabbit lungs (with L-NAME); conditions: compound at 10 μM in perfusate, L-NAME 100 μM
Description: Adult New Zealand white rabbits were prepared as described in Example 2. After exsanguination was completed, a midsternal thoracotomy was performed, and the heart and lungs were removed en bloc. Fluid-filled catheters were placed into the PA and the left atrium for lung perfusion and pressure measurements. The isolated lungs were ventilated at 10 ml/kg with 26-30 breaths/min of 15% O2-6% CO2-79% N2 to achieve a perfusate pH of 7.33±0.01, PCO2 of 38.1±2.8 mmHg, and PO2 of 107.3±5.9 mmHg. The lungs were perfused in a humidified chamber (34-37° C.) in a recirculating manner with 150 ml of PSS containing (in mM) 118.3 NaCl, 4.7 KCl, 2.5 CaCl2, 1.2 MgSO4, 1.2 KH2PO4, 25.0 NaHCO3, 0.026 Na-EDTA, and 11.1 glucose (pH 7.4) to which hetastarch was added for maintenance of oncotic pressure. […] Pulmonary arterial (Ppa, inflow), pulmonary venous (Pla, outflow), and airway pressures were recorded continuously. Microvascular pressure (Pmv) was measured by the double occlusion method (Dawson C. A., et al., Journal of Applied Physiology 64: 274-284, 1988; Wurtz M. M., et al., J Appl Physiol 73: 2135-2141, 1992). […] Total PVR was calculated as (Ppa Pla)/perfusate flow rate. Arterial PVR was calculated as (Ppa Pmv)/perfusate flow rate, and venous PVR was calculated as (Pmv Pla)/perfusate flow rate (Stephenson A. H., et al., Am J Physiol 275: H100-H109, 1998).

C#CCOc1ccccc1CCCCCC(=O)NS(C)(=O)=O [MSPPOH, N-methyl sulfonyl-6-(2-propargyloxyphenyl)hexanamide]
effect on acute hypoxia-induced pulmonary hypertension (mice): significantly reduced
effect on chronic hypoxia-induced pulmonary vascular remodeling (mice): significantly reduced

CCCCCCOCCCCCCCCC#CCCCC(=O)O [Compound 14-HTYC, 14-(hexyloxy)tetradec-5-ynoic acid]
inhibition of 5,6-EET-induced vasoconstriction (concentration-response curve shifted to the right) [1]: specifically inhibit

CCCCCC1OC1CCCCCCC/C=C\CCCC(=O)O (stereo not shown) [14,15-EEZE, 14,15-epoxyeicosa-5(Z)-enoic acid]
effect on vasoconstrictor activity of exogenously administered 5,6-EET (concentration-response curve shifted to the left) [2]: significantly promoted or agonized

CCCCCCCOCCCCCCC/C=C\CCCC(=O)O [Compound 13-HTEC, 13-heptyloxytridec-5(Z)-enoic acid]
inhibition of 5-hydroxytryptamine (5-HT)-mediated vasoconstriction of PA [1]: is not inhibited; also recorded: does not inhibit
inhibition of 14,15-EET-mediated vasoconstriction of PA [1]: is not inhibited; also recorded: does not inhibit
inhibition of PGF2α-mediated vasoconstriction of PA [1]: is not inhibited; also recorded: does not inhibit
inhibition of norepinephrine (NE)-mediated vasoconstriction of PA [1]: Minimal effects; also recorded: may have partially inhibited
inhibition of 5,6-EET-induced vasoconstriction (concentration-response curve shifted to the right) [1]: specifically inhibit; also recorded: significantly inhibited
effect on pulmonary arterial inflow (Ppa) pressure / hypoxia-induced vasoconstriction [3]: hypoxia-induced vasoconstriction is reduced; also recorded: significantly decreased
